# From PubChem BioAssay AID2060886 (Molecular Pharmacology Branch, DTP, NCI, 2025)
# System: 653999-131-R-J2-PDC complex spheroids, growth inhibition
# Assay: Anticancer human tumor 653999-131-R-J2-PDC patient-derived lung adenocarcinoma cell line growth inhibition [RAS]
# Settings: for IC50: curve of first compound; for viability, T/C: stronger effect = lower value
# In short: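 Multi-cell-type spheroids: tumor cells plus HUVEC endothelial cells and mesenchymal stem cells. RAS-pathway inhibitors were combined with targeted agents, each dosed in half-log steps down from clinical Cmax, or from 10 microM when Cmax was unknown.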
# [1] = second compound 0.000949 µM, first compound 0.0316 µM
# [2] = second compound 0.000949 µM, first compound 0.1 µM
# [3] = second compound 0.000949 µM, first compound 0.316 µM
# [4] = second compound 0.000949 µM, first compound 1 µM
# [5] = second compound 0.000949 µM, first compound 3.16 µM
# [6] = second compound 0.000949 µM, first compound 10 µM
# [7] = second compound 0.003 µM, first compound 0.0316 µM
# [8] = second compound 0.003 µM, first compound 0.1 µM
# [9] = second compound 0.003 µM, first compound 0.316 µM
# [10] = second compound 0.003 µM, first compound 1 µM
# [11] = second compound 0.003 µM, first compound 3.16 µM
# [12] = second compound 0.003 µM, first compound 10 µM
# [13] = second compound 0.00949 µM, first compound 0.0316 µM
# [14] = second compound 0.00949 µM, first compound 0.1 µM
# [15] = second compound 0.00949 µM, first compound 0.316 µM
# [16] = second compound 0.00949 µM, first compound 1 µM
# [17] = second compound 0.00949 µM, first compound 3.16 µM
# [18] = second compound 0.00949 µM, first compound 10 µM
# [19] = second compound 0.03 µM, first compound 0.0316 µM
# [20] = second compound 0.03 µM, first compound 0.1 µM
# [21] = second compound 0.03 µM, first compound 0.316 µM
# [22] = second compound 0.03 µM, first compound 1 µM
# [23] = second compound 0.03 µM, first compound 3.16 µM
# [24] = second compound 0.03 µM, first compound 10 µM
# [25] = second compound 0.0949 µM, first compound 0.0316 µM
# [26] = second compound 0.0949 µM, first compound 0.1 µM
# [27] = second compound 0.0949 µM, first compound 0.316 µM
# [28] = second compound 0.0949 µM, first compound 1 µM
# [29] = second compound 0.0949 µM, first compound 3.16 µM
# [30] = second compound 0.0949 µM, first compound 10 µM
# [31] = second compound 0.3 µM, first compound 0.0316 µM
# [32] = second compound 0.3 µM, first compound 0.1 µM
# [33] = second compound 0.3 µM, first compound 0.316 µM
# [34] = second compound 0.3 µM, first compound 1 µM
# [35] = second compound 0.3 µM, first compound 3.16 µM
# [36] = second compound 0.3 µM, first compound 10 µM
# 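Also: spheroids exposed to the agents for seven days before the readout.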
structure (smiles),measurement,setting,value
CC1(O)CCCC1n1c(=O)c(C(F)F)cc2cnc(NC3CCN(S(C)(=O)=O)CC3)nc21 (centres undefined) + CCn1c(-c2cccnc2C(C)OC)c2c3cc(ccc31)N1CCOC(CC(NC(=O)C(C(C)C)N(C)C(=O)C3(F)CCN(C(=O)C#CC(C)(C)N(C)C)CC3)C(=O)N3CCCC(N3)C(=O)OCC(C)(C)C2)C1,IC50,second compound 0.000949 µM,> 10 µM
same,IC50,second compound 0.003 µM,6.61 µM
same,IC50,second compound 0.00949 µM,6.6 µM
same,IC50,second compound 0.03 µM,> 10 µM
same,IC50,second compound 0.0949 µM,6.91 µM
same,IC50,second compound 0.3 µM,6.62 µM
same,"viability, T/C",[1],88.3%
same,"viability, T/C",[2],71.1%
same,"viability, T/C",[3],67.8%
same,"viability, T/C",[4],59.2%
same,"viability, T/C",[5],81.2%
same,"viability, T/C",[6],47.2%
same,"viability, T/C",[7],86.8%
same,"viability, T/C",[8],71.4%
same,"viability, T/C",[9],73.4%
same,"viability, T/C",[10],62.5%
same,"viability, T/C",[11],71.7%
same,"viability, T/C",[12],39.6%
same,"viability, T/C",[13],97.2%
same,"viability, T/C",[14],69.3%
same,"viability, T/C",[15],78.6%
same,"viability, T/C",[16],79.8%
same,"viability, T/C",[17],79.5%
same,"viability, T/C",[18],33.4%
same,"viability, T/C",[19],92.6%
same,"viability, T/C",[20],62.1%
same,"viability, T/C",[21],60.9%
same,"viability, T/C",[22],63.8%
same,"viability, T/C",[23],83.3%
same,"viability, T/C",[24],42.5%
same,"viability, T/C",[25],86.8%
same,"viability, T/C",[26],73.4%
same,"viability, T/C",[27],64.4%
same,"viability, T/C",[28],65.4%
same,"viability, T/C",[29],85.9%
same,"viability, T/C",[30],38.1%
same,"viability, T/C",[31],84.3%
same,"viability, T/C",[32],62.3%
same,"viability, T/C",[33],72%
same,"viability, T/C",[34],68.9%
same,"viability, T/C",[35],88.9%
same,"viability, T/C",[36],36.1%
CCC(CC)c1cc(NC2CCC(N)C2)n2nccc2n1 (centres undefined) + CCn1c(-c2cccnc2C(C)OC)c2c3cc(ccc31)N1CCOC(CC(NC(=O)C(C(C)C)N(C)C(=O)C3(F)CCN(C(=O)C#CC(C)(C)N(C)C)CC3)C(=O)N3CCCC(N3)C(=O)OCC(C)(C)C2)C1,IC50,second compound 0.000949 µM,2.01 µM
same,IC50,second compound 0.003 µM,1.98 µM
same,IC50,second compound 0.00949 µM,1.94 µM
same,IC50,second compound 0.03 µM,2.09 µM
same,IC50,second compound 0.0949 µM,1.84 µM
same,IC50,second compound 0.3 µM,1.91 µM
same,"viability, T/C",[1],101%
same,"viability, T/C",[2],99.6%
same,"viability, T/C",[3],102%
same,"viability, T/C",[4],98.6%
same,"viability, T/C",[5],15%
same,"viability, T/C",[6],22.1%
same,"viability, T/C",[7],111%
same,"viability, T/C",[8],107%
same,"viability, T/C",[9],106%
same,"viability, T/C",[10],95.9%
same,"viability, T/C",[11],17.7%
same,"viability, T/C",[12],18.7%
same,"viability, T/C",[13],102%
same,"viability, T/C",[14],114%
same,"viability, T/C",[15],106%
same,"viability, T/C",[16],93%
same,"viability, T/C",[17],14.4%
same,"viability, T/C",[18],22.5%
same,"viability, T/C",[19],96%
same,"viability, T/C",[20],107%
same,"viability, T/C",[21],114%
same,"viability, T/C",[22],112%
same,"viability, T/C",[23],17%
same,"viability, T/C",[24],19.1%
same,"viability, T/C",[25],97.5%
same,"viability, T/C",[26],115%
same,"viability, T/C",[27],121%
same,"viability, T/C",[28],88.5%
same,"viability, T/C",[29],12%
same,"viability, T/C",[30],20%
same,"viability, T/C",[31],92.1%
same,"viability, T/C",[32],97.6%
same,"viability, T/C",[33],108%
same,"viability, T/C",[34],92.1%
same,"viability, T/C",[35],13.7%
same,"viability, T/C",[36],20.5%
